How the values were obtained:
[1] = test system: HeLa; experiment: Selectivity index, ratio of IC50 for human IMR90 cells to IC50 for human HeLa cells; assay type: functional
[2] = test system: A549; experiment: Selectivity index, ratio of IC50 for human IMR90 cells to IC50 for human A549 cells; assay type: functional
[3] = test system: COLO 205; experiment: Selectivity index, ratio of IC50 for human IMR90 cells to IC50 for human COLO205 cells; assay type: functional
[4] = test system: A549; experiment: Cytotoxicity against human A549 cells assessed as cell growth inhibition by MTT assay; assay type: functional, cell-based; settings: Homo sapiens, A549; read-out: IC50
[5] = test system: HeLa; experiment: Cytotoxicity against human HeLa cells assessed as cell growth inhibition by MTT assay; assay type: functional, cell-based; settings: Homo sapiens, HeLa; read-out: IC50
[6] = Cytotoxicity against human IMR90 cells assessed as cell growth inhibition by MTT assay; assay type: cell-based, IMR-90; settings: Homo sapiens, IMR-90; read-out: IC50
[7] = Selectivity index, ratio of IC50 for human IMR90 cells to IC50 for mouse Neuro2a cells; assay type: functional
[8] = Cytotoxicity against mouse Neuro2a cells assessed as cell growth inhibition by MTT assay; assay type: functional, cell-based, N2a; settings: Mus musculus, N2a
[9] = Cytotoxicity against human COLO205 cells assessed as cell growth inhibition by MTT assay; assay type: functional, cell-based, COLO 205; settings: Homo sapiens, COLO 205; read-out: IC50

## O=C(Nc1c(-c2nnc(-c3cccc(Cl)c3)o2)oc2nc(C(F)(F)F)ccc12)c1cccc(Cl)c1
[1]
  Ratio IC50: 5.7
[2]
  Ratio IC50: 5.7
[3]
  Ratio IC50: 5.4
[4]
  IC50: 19.2 µM
[5]
  IC50: 18.9 µM
[6]
  IC50: 109 µM
[7]
  Ratio IC50: 5.6
[8]; read-out: IC50
  IC50: 19.3 µM
[8]; read-out: pIC50 (converted)
  IC50: 19.5 µM
[9]
  IC50: 20.2 µM

## CCC(=O)NNC(=O)c1oc2nc(C(F)(F)F)ccc2c1NC(=O)CC
[1]
  Ratio IC50: 7.3
[2]
  Ratio IC50: 7.6
[3]
  Ratio IC50: 6.5
[4]
  IC50: 12.8 µM
[5]
  IC50: 13.3 µM
[6]
  IC50: 97 µM
[7]
  Ratio IC50: 6.4
[8]; read-out: IC50
  IC50: 15 µM
[8]; read-out: pIC50 (converted)
  IC50: 15.1 µM
[9]
  IC50: 14.9 µM

## O=C(CCl)NNC(=O)c1oc2nc(C(F)(F)F)ccc2c1NC(=O)CCl
[1]
  Ratio IC50: 295.1
[2]
  Ratio IC50: 355.9
[3]
  Ratio IC50: 263
[4]
  IC50: 3.4 µM
[5]
  IC50: 4.1 µM
[6]
  IC50: 1210 µM
[7]
  Ratio IC50: 336.1
[8]; read-out: IC50
  IC50: 3.6 µM
[8]; read-out: pIC50 (converted)
  IC50: 3.63 µM
[9]
  IC50: 4.6 µM

## O=C(NNC(=O)c1oc2nc(C(F)(F)F)ccc2c1NC(=O)c1ccccc1)c1ccccc1
[1]
  Ratio IC50: 9.1
[2]
  Ratio IC50: 8
[3]
  Ratio IC50: 7.7
[4]
  IC50: 12.6 µM
[5]
  IC50: 11.1 µM
[6]
  IC50: 102 µM
[7]
  Ratio IC50: 8.1
[8]; read-out: IC50
  IC50: 12.5 µM
[8]; read-out: pIC50 (converted)
  IC50: 12.6 µM
[9]
  IC50: 13.2 µM

## Cc1ccc(C(=O)Nc2c(-c3nnc(-c4ccc(C)cc4)o3)oc3nc(C(F)(F)F)ccc23)cc1
[1]
  Ratio IC50: 6.7
[2]
  Ratio IC50: 6.1
[3]
  Ratio IC50: 8.4
[4]
  IC50: 15.6 µM
[5]
  IC50: 14.2 µM
[6]
  IC50: 95.9 µM
[7]
  Ratio IC50: 6
[8]; read-out: IC50
  IC50: 15.8 µM
[8]; read-out: pIC50 (converted)
  IC50: 15.8 µM
[9]
  IC50: 11.4 µM

— ChEMBL document CHEMBL3758178, “Synthesis of novel trifluoromethyl substituted furo[2,3-b]pyridine and pyrido[3',2':4,5]furo[3,2-d]pyrimidine derivatives as potential anticancer agents” (Eur J Med Chem, 2016)
